{"source": "patent US20080033005A1", "about": "“METHODS FOR THE TREATMENT OF MULTIPLE SCLEROSIS” (AVENTIS PHARMACEUTICALS INC., priority 2004, published 2008)", "key": {"[1]": {"system": "Primary rat oligodendrocyte progenitor cells", "assay": "Oligodendrocyte toxicity assay, progenitor cells (OLP), SIN-1, LDH release", "assay_type": "cell-based", "conditions": "compound 10 nm, 1 hour pretreatment; Sin-1 10 mM; LDH after 24 hours; oligodendrocyte progenitors", "experimental": "(§1) Primary rat oligodendrocyte progenitor cells were obtained from the cerebra of 2-3 day old postnatal rats (Sprague Dawley). The meninges were removed and tissue was mechanically dissociated. Cells were plated on T75 flasks and fed with DMEM+10% FBS.\n(§2) Enriched OLPs were collected by mechanical separation from the astrocytic monolayer and were expanded in serum free media (SFM) supplemented with the mitogens, PDGF-AA (10 ng/ml) and FGF-2 (10 ng/ml).\n(§3) Cells were plated in 96-well plates, 10,000 per well. Medium was changed to fresh medium and cells were pretreated with compounds for 1 hour. Toxins were added to give the following final concentrations: • Sin-1 10 mM • Pyrogallol 500 μM • C2 ceramide 100 μM • Camptothecin 10 μM\n(§4) After 24 hours, medium was removed and assayed for LDH activity using the Promega cytotox 96 kit (catalog# G1780). Results were calculated as percent protection against toxin-induced toxicity."}, "mature oligodendrocytes": {"system": "mature oligodendrocytes", "assay": "Oligodendrocyte toxicity assay, mature oligodendrocytes (OL), SIN-1, LDH release", "assay_type": "cell-based, rat", "conditions": "compound 10 nm, 1 hour pretreatment, Sin-1 10 mM, LDH after 24 hours", "experimental": "as §1, §2\nTo generate mature oligodendrocytes, progenitor cells were switched to SFM supplemented with IGF-1 (10 ng/ml) 24 hours after plating and cells were grown under these conditions for 7 days prior to experimental assays.\nas §3, §4"}, "SK-N-SH cells": {"system": "SK-N-SH cells", "conditions": "U-0126 given with the tested compounds", "experimental": "Cells from a human neuroblastoma cell line, SK-N-SH cells, were plated at 50,000 cells/well in Costar Biocoat 96-well poly-D-lysine coated plates in EMEM (Minimum Essential Medium Eagle with Earle's salts) containing penicillin/streptomycin, L-glutamine, sodium pyruvate, non-essential amino acids and sodium bicarbonate. Cells were grown overnight in a 37° C. incubator under 5% CO2. The next day, the medium was removed and replaced with fresh medium. Cells were pretreated with Serms for 1 hour, and SIN-1 (3-morpholinosydnonimine, which produces peroxynitrite) was added to give a final concentration of 2 or 10 mM. After 24 hours, the medium was removed and assayed for LDH activity using the Promega cytotox 96 kit (catalog# G1780). Results were calculated as percent protection against SIN-1 toxicity."}}, "data": [{"smiles": "COc1ccc(-c2sc3cc(O)ccc3c2Oc2ccc(OCCN3CCCCC3)cc2)cc1", "note": "[Arzoxifen]", "values": [{"measurement": "% Protection (SIN-1*) OLP 10 nm", "setting": "[1]", "value": 1.485, "unit": "%"}, {"measurement": "% Protection (SIN-1*) OL 10 nm", "setting": "mature oligodendrocytes", "value": 8.237, "unit": "%"}]}, {"smiles": "N#CC(=C(/N)Sc1ccccc1N)/C(C#N)=C(\\N)Sc1ccccc1N", "note": "[U-0126]", "values": [{"measurement": "effect of MEK inhibitor on the neuroprotection by the compounds", "setting": "SK-N-SH cells", "value": "inhibition of the neuroprotection"}]}]}
